Results from publication PMC11418391, “Benzenesulfonohydrazide-tethered non-fused and fused heterocycles as potential anti-mycobacterial agents targeting enoyl acyl carrier protein reductase (InhA) with antibiofilm activity” (RSC Advances, 2024).

Molecular target: Enoyl acyl carrier protein (ACP) reductase (InhA) (Mycobacterium tuberculosis, UniProt P9WGR1)
Experiment: colorimetric InhA assay, NADH oxidation at […] nm with 2-trans-octanoyl-CoA
Type: biochemical

Chain of Enoyl acyl carrier protein (ACP) reductase (InhA) (P9WGR1 whole entry, looked up): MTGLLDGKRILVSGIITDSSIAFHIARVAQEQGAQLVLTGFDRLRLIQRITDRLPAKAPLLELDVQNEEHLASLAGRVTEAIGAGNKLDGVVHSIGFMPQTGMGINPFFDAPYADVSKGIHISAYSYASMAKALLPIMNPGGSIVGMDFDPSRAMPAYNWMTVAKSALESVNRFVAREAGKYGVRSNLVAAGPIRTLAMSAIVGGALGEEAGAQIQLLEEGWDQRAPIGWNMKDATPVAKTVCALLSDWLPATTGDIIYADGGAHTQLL

| Compound | IC50 [nM] |
| --- | --- |
| C/C(=N\NS(=O)(=O)c1ccc(C)cc1)c1c(O)c2ccccc2oc1=O [compound 3] | 1620 ± 690 |
| CC(=NNS(=O)(=O)c1ccc(C)cc1)c1ccccn1 [compound 7] | 910 ± 30 |
